{
  "source": "paper PMC3948684",
  "about": "“Approaches to Improve the Oral Bioavailability and Effects of Novel Anticancer Drugs Berberine and Betulinic Acid” (PLoS ONE, 2014)",
  "key": {"H1650 colonies": {"system": "H1650 colonies", "test": "Clonogenic assay (colony formation)", "format": "cell-based, Human", "conditions": "BBR at 1, 3 and 10 µM", "excerpt": "Supplementary file pone.0089919.s002.tif: Figure S2 Effect of BBR on colony formation. A) Effects of BBR free drug and BBR-SD on spheroid number B) on spheroid sizes. Representative clonogenic images of H1650 colonies form C) control and D) BBR free drug and BBR-SD treated groups. Colonies were stained with crystal violet staining for better visibility. Each data point is represented as mean±sem (n = 6–10). **p<0.01 and ***p<0.001 Vs respective untreated control groups. (TIF) Click here for additional data file."}, "cleaved caspase 3": {"system": "cleaved caspase 3", "test": "IHC analysis of orthotopic lung tumor sections", "format": "in vivo, athymic Nu/nu mice", "conditions": "A549 tumors", "excerpt": "(§1) Formalin fixed tumors were processed for automatic histopathological procedures. The detailed procedure was provided in Data S1 [30].\n(§2) C) IHC for cleaved caspase 3 and CD31: Formalin fixed tumors were processed for automatic histopathological procedures. The detailed procedure was provided in supplmmentary data (Supple). Tissue sections were dehydrated by immersing in increasing concentrations of alcohol and embedded in paraffin. Paraffin embedded specimens were cut into thin sections (4-5 µm). Tissue sections (4–5 μm thick) were mounted on poly-L-lysine–coated slides and sections were deparaffinized with xylene and rehydration through graded concentrations of alcohol, then incubated with 3% […] for 20 min to block endogenous peroxidase activity. Antigen retrieval for cleaved caspase 3 and CD31 staining was carried out for 10 min in 0.01 M sodium citrate buffer (pH 6), heated at 95°C in a steam bath followed by cooling for 30 min. Endogenous peroxidase was blocked by 3% hydrogen peroxide in PBS for 10 min. The slides were washed with PBS and incubated for 1h at room temperature with a protein blocking solution. […] Numbers of positive cells per filed was quantified by counting 10 different fields from each section. Based on the CD31 positive cells, microvessel density (MVD) was calculated (30)."}, "CD31": {"system": "CD31", "test": "IHC analysis of orthotopic lung tumor sections (microvessel density)", "format": "in vivo, athymic Nu/nu mice", "conditions": "A549 tumors; CD31 positive cells", "excerpt": "as §1, §2"}, "[1]": {"system": "TUNEL positive apoptotic cells", "test": "TUNEL assay on orthotopic lung tumor sections", "format": "in vivo, athymic Nu/nu mice", "description": "Terminal deoxynucleotidyl transferase-mediated dUTP nick end labeling (TUNEL) assay was used to study the DNA fragmentation or apoptosis detection. TUNEL assay was performed on 4–5 µm thick sections as per the kit manual. Formalin-fixed tumor tissues were embedded in paraffin and sectioned ([…]). DeadEndTM Colorimetric Apoptosis Detection System (Promega, Madison, WI) allows the recognition of apoptotic nuclei in paraffin-embedded tissue sections fixed on slides according to the manufacturer's protocol. Briefly, the equilibration buffer was added to slides and incubated for 10 minutes followed by 10-minute incubation in […] proteinase K solution. The sections were washed in PBS and incubated with TdT enzyme at 37°C for 1 h in a humidified chamber for incorporation of biotinylated nucleotides at the 3-OH ends of DNA. The slides were incubated in horseradish peroxidase-labeled streptavidin to bind the biotinylated nucleotides followed by detection with stable chromagen DAB. The images on the slides were visualized with an Olympus BX40 light microscope equipped with a computer-controlled digital camera (DP71, Olympus Center Valley, PA, USA). Three slides per group were stained and apoptotic cells were identified by dark brown […] staining."}, "VEGF": {"system": "VEGF", "test": "Quantification of VEGF by ELISA", "format": "in vivo, athymic Nu/nu mice", "description": "VEGF levels were estimated in plasma, tumor tissue homogenates by ELISA method. Tumors were homogenized in RIPA lysis buffer (20 mM Tris-HCl pH 7.5, 150 mM NaCl, 1% Triton X-100) containing proteinase inhibitors (Complete Proteinase Inhibitor Cocktail Tablets, Roche, Indianapolis. IN). Tissue debris was pelleted and the resulting supernatant was used in subsequent analysis. Total protein concentration was determined with a BCA protein assay (Pierce, Rockford, IL). VEGF concentrations were determined according to the manufacturer's instructions. A minimum of 3 tumors per group were analyzed in duplicate."}, "[2]": {"test": "Toxicity on chronic administration (body weights, H&E histopathology)", "conditions": "100 mg/kg for 3 weeks", "description": "A549 cells were grown in F12K Medium containing 10% FBS and standard antibiotic mix at 5% CO2 and 37°C. For orthotopic lung tumor model, mice were anesthetized with Isoflurane and a 5 mm skin incision was made to the left chest, 5 mm below the scapula. Hamilton syringes (1 ml) with 28-gauge hypodermic needles were used to inject the cell inoculums through the sixth intercostal space into the left lung. The needle was quickly advanced to a depth of 3 mm and quickly removed after the injection of the A549 cells (2 million/mouse) suspended in 100 µL PBS (pH 7.4) into the lung parenchyma. For metastatic lung tumor models H1650 cells (2 million in 100 µL PBS) were intravenously administered to mice via tail vein. […] Wounds from the incisions were closed with surgical skin clips. […] Drug treatment was started 2 weeks after the tumor cell implantation. BBR free drug or SD formulation was given orally at the dose of 100 mg/kg daily for 3 weeks. […] Body weights were monitored throughout the study. Animal survival rates were recorded during the study. The lung weights and tumor volumes were used for assessment of therapeutic activity of the treatments. After sacrificing the animals lung weights and tumor nodules were recorded in metastatic tumor models.\nOrthotopic lung tumors and mice small intestine segments (ileum) were processed for normal histopathological procedures and 5–10 µm sections were made. After deparaffinization and rehydration, sections were stained with Hematoxylin and Eosin for normal histological evaluation. Similarly, small intestine segments were processed and stained with H&E and visualized under normal microscope."}, "[3]": {"set-up": "method as in PMID 17531424", "conditions": "single oral dose of 400 mg ref 20; cited from earlier work"}},
  "data": [
    {"compound": "COc1ccc2cc3[n+](cc2c1OC)CCc1cc2c(cc1-3)OCO2.[Cl-]", "note": "[BBR free drug, 5,6-dihydro-9,10-dimethoxy-benzo[g]-1,3-benzodioxolo[5,6-a]quinolizinium, chloride]", "values": [
      {"measurement": "number of colonies and colony sizes", "setting": "H1650 colonies", "result": "significantly decreased"},
      {"measurement": "number of cleaved caspase 3 positive apoptotic cells, higher compared to control", "setting": "cleaved caspase 3", "result": 4.20, "unit": "fold"},
      {"measurement": "microvessel density (MVD) reduced compared to untreated control tumors", "setting": "CD31", "result": 1.44, "unit": "fold"},
      {"measurement": "increase in TUNEL positive apoptotic cells compared to control tumors", "setting": "[1]", "result": 2.74, "unit": "fold"},
      {"measurement": "VEGF levels in tumor lysates", "setting": "VEGF; untreated control 284.71±42.84", "result": "137.59±20.84", "unit": "pg/mg protein"},
      {"measurement": "VEGF levels in serum", "setting": "VEGF; untreated control 597.90±54.03", "result": "315.41 ± 44.06", "unit": "pg/mL"},
      {"measurement": "H&E histopathology of small intestine (ileum)", "setting": "[2]", "result": "No visible toxicity"},
      {"measurement": "body weight changes during treatment", "setting": "[2]", "result": "no significant change"},
      {"measurement": "signs of toxicity on chronic administration", "setting": "[2]", "result": "did not result in any toxicity"},
      {"measurement": "Cmax in human plasma", "setting": "[3]", "result": 0.4, "unit": "ng/mL"}
    ]}
  ]
}
